Source: PMC8954523 (Pharmaceutics, 2022)
≈ marks a conversion by molar mass, not a printed value. Where “and” joins values, the source holds several entries; their conditions need not be identical. Equal entries are not always repeated. Where two headings read alike, the source gives them in different places.

Legend:
Type in all cases: physicochemical
[1] = Apparent distribution coefficient, n-hexane/water, isothermal shake-flask; conditions: 298.15 K
Procedure: The well-known isothermal shake-flask method was applied for the determination of the apparent distribution coefficients in the 1-octanol/water ( Dappoct/w ) and n-hexane/water ( Dapphex/w ) systems. The mutually saturated solvents were prepared by mixing water and organic phases for 24 h and settling and separating from each other. The stock solutions of the drug were made from 1-octanol saturated with water for the 1-octanol/water distribution, and n-hexane saturated with water for the n-hexane/water system. An aliquot of the stock solution was placed in a glass vial together with an aliquot of the respective phase and mixed for 24 h at five temperatures, from 293.15 to 313.15 K (±0.1 K). The concentrations of the compounds were determined spectrophotometrically (Shimadzu 1800, Kyoto, Japan) in a UV region, with an accuracy of 2–4%. The reported experimental values represent the average of at least four replicate experiments.
(§1) The apparent distribution coefficients were calculated from the molar concentrations of the substance in the phases using the following equation:(10) DCorg/w=C2org/w/C2w/org where DCorg/w is the apparent distribution coefficient, C2org/w and C2w/org are the concentrations (M) of the compound after the distribution in the 1-octanol or n-hexane and water phases, respectively. The apparent distribution coefficients in the mole fraction scale ( DXorg/w ) were calculated by the equation:(11) DXorg/w=X2org/w/X2w/org where X2org/w and X2w/org are the concentrations (mole fract.) of the compound after distribution. The standard Gibbs energy of the transfer ( ΔGtr0) from water to the organic phase was calculated as follows:(12) ΔGtr0=−RT(lnDXorg/w)

[2] = Equilibrium solubility, shake-flask method; conditions: for solubility at 24 h: thermodynamic from solid, read-out: Solubility S2 × 10^6
Procedure: The standard shake-flask method was applied to determine solubility. The saturated solutions of the studied compound were obtained in glass screw-capped vials with the respective solvent, which were vigorously stirred in an air thermostat. The volumes of water, 1-octanol, n-hexane, and ethanol equaled 7, 2, 7, and 2 mL, respectively. […] After this time period, the saturated solutions stayed in the thermostat during the night, and then the non-dissolved substance was separated from the solution via centrifugation (Biofuge pico, Thermo Electron LED GmbH, Langenselbold, Germany) at the respective temperature for 20 min at 10,000 rpm. […] The experimental results were reported as an average of at least three replicated experiments with an accuracy of 2–4%.
The dissolution thermodynamic parameters on the standard state were determined using mole fraction unitary units. Recalculation of the molar solubility to the mole fraction was made as follows:(1) X2=M1S2/S2(M1−M2)+1000ρ, where S2 is the molar solubility of solute (M), M1 and M2 are the molar masses of solvent and solute, respectively, and ρ (g∙cm^−3) is the density of pure solvents. […] The density values of the pure solvents were used in calculations (Table S1).

[3] = Transfer thermodynamic functions from distribution experiments (real transfer); conditions: 298.15 K
Procedure: as §1
The transfer enthalpy ( ΔHtr0) was derived from the temperature dependences of the distribution coefficients by the van’t Hoff approach as:(13) ∂(lnDXorg/w)/∂T=ΔHtr0/RT^2
The standard transfer entropy ( ΔStr0 ) was determined by the equation:(14) ΔGtr0=ΔHtr0−TΔStr0
As follows, additional information on the thermodynamic functions of this parameter (enthalpies and entropies) was obtained from the temperature dependences in order to disclose the transfer (n-hexane → 1-octanol) thermodynamic mechanisms. To this end, the ∆ln DX values (expressed in mole fraction units) characterizing the transfer (n-hexane → 1-octanol) were calculated as ∆ln DX = ln DXoct/w − ln DXhex/w and the respective thermodynamic functions were determined using Equations (12)–(14). The resulting temperature dependences and the contributions of the enthalpy and entropy terms to the free Gibbs energy of the hypothetical and “real” transfers are shown in Figure 5 and Table 6. […] At the same time, the thermodynamic mechanism of the (n-hexane → 1-octanol) transfer differs from the (water → organic solvents) transitions. In particular, the (n-hexane → 1-octanol) transfer process is enthalpy determined (| ΔHtr0 | > | TΔStr0 |) similar to the (water → 1-octanol) one. Nevertheless, TΔStr0 < 0 testifies to the ordering of the system as opposed to water → 1-octanol and water → n-hexane ( TΔStr0 > 0). It can be concluded that the mechanism of the (n-hexane → 1-octanol) transfer is absolutely different from the (water → n-hexane) and partially agrees with the (water → 1-octanol) transition. Importantly, the regularities estimated from the transferring diagram analysis match the results obtained using the Hansen parameters ( Δδt ^water > Δδt ^n-hexane > Δδt ^1-octanol).

[4] = Hypothetical transfer thermodynamic functions from solvation functions; conditions: water → n-hexane
[5] = n-hexane → 1-octanol, from Δ lnDX
[6] = water → 1-octanol, real transfer
[7] = water → n-hexane, real transfer

Structure (SMILES): CC(O)(CS(=O)(=O)c1ccc(F)cc1)C(=O)Nc1ccc(C#N)c(C(F)(F)F)c1 (stereo not drawn) [BCL, bicalutamide]
- experimental over calculated distribution coefficient ([1]; n-hexane/water): 1.9 fold
- DChex/w, experimental apparent distribution coefficient ([1]; n-hexane/water, molarity scale): 1.88 ± 0.04
- DC/calchex/w, calculated distribution coefficient ([1]; ratio of molar solubilities in n-hexane and water): 1.00
- Solubility X2 × 10^4 ([2]; 1-octanol, 293.15 K): 2.23 mole fract.
- Solubility X2 ([2]; 1-octanol, 298.15 K): 2.57 × 10^−4 mole fract.
- Solubility X2 × 10^4 ([2]; 1-octanol, 298.15 K): 2.57 mole fract.
- Solubility X2 × 10^4 ([2]; 1-octanol, 303.15 K): 3.00 mole fract.
- Solubility X2 × 10^4 ([2]; 1-octanol, 308.15 K): 3.40 mole fract.
- Solubility X2 × 10^4 ([2]; 1-octanol, 313.15 K): 3.95 mole fract.
- Solubility X2 × 10^3 ([2]; ethanol, 293.15 K): 1.15 mole fract.
- Solubility X2 ([2]; ethanol, 298.15 K): 1.42 × 10^−3 mole fract.
- Solubility X2 × 10^3 ([2]; ethanol, 298.15 K): 1.42 mole fract.
- X2 298.15 ([2]; ethanol, 298.15 K): 1.42 × 10^−3
- Solubility X2 × 10^3 ([2]; ethanol, 303.15 K): 1.74 mole fract.
- Solubility X2 × 10^3 ([2]; ethanol, 308.15 K): 2.11 mole fract.
- Solubility X2 × 10^3 ([2]; ethanol, 313.15 K): 2.43 mole fract.
- solubility in ethanol as compared to 1-octanol ([2]; mole fraction, 298.15 K): 5.5 fold
- Solubility X2 × 10^6 ([2]; n-hexane, 293.15 K): 0.74 mole fract.
- Solubility X2 ([2]; n-hexane, 298.15 K): 1.07 × 10^−6 mole fract.
- Solubility X2 × 10^6 ([2]; n-hexane, 298.15 K): 1.07 mole fract.
- X2 298.15 ([2]; n-hexane, 298.15 K): 1.07 × 10^−6
- Solubility X2 × 10^6 ([2]; n-hexane, 303.15 K): 1.50 mole fract.
- Solubility X2 × 10^6 ([2]; n-hexane, 308.15 K): 2.04 mole fract.
- Solubility X2 × 10^6 ([2]; n-hexane, 313.15 K): 2.76 mole fract.
- Solubility X2 × 10^6 ([2]; n-hexane, 318.15 K): 3.63 mole fract.
- solubility at 24 h ([2]; n-hexane, organic solvent or mixture, n-hexane, 293.15 K): 5.67 µM (≈ 2.44 µg/mL)
- solubility at 24 h ([2]; n-hexane, organic solvent or mixture, n-hexane, 298.15 K): 8.12 µM (≈ 3.49 µg/mL)
- solubility at 24 h ([2]; n-hexane, organic solvent or mixture, n-hexane, 303.15 K): 11.3 µM (≈ 4.88 µg/mL)
- solubility at 24 h ([2]; n-hexane, organic solvent or mixture, n-hexane, 308.15 K): 15.3 µM (≈ 6.59 µg/mL)
- solubility at 24 h ([2]; n-hexane, organic solvent or mixture, n-hexane, 313.15 K): 20.5 µM (≈ 8.83 µg/mL)
- solubility at 24 h ([2]; n-hexane, organic solvent or mixture, n-hexane, 318.15 K): 26.8 µM (≈ 11.5 µg/mL)
- Solubility X2 × 10^7 ([2]; water, 293.15 K): 1.12 mole fract.
- Solubility X2 ([2]; water, 298.15 K): 1.47 × 10^−7 mole fract.
- Solubility X2 × 10^7 ([2]; water, 298.15 K): 1.47 mole fract.
- X2 298.15 ([2]; water, 298.15 K): 1.47 × 10^−7
- Solubility X2 × 10^7 ([2]; water, 303.15 K): 1.90 mole fract.
- Solubility X2 × 10^7 ([2]; water, 308.15 K): 2.35 mole fract.
- Solubility X2 × 10^7 ([2]; water, 313.15 K): 2.97 mole fract.
- solubility at 24 h ([2]; water, water, 293.15 K): 6.24 µM (≈ 2.69 µg/mL)
- solubility at 24 h ([2]; water, water, 298.15 K): 8.14 µM (≈ 3.5 µg/mL)
- solubility at 24 h ([2]; water, water, 303.15 K): 10.5 µM (≈ 4.53 µg/mL)
- solubility at 24 h ([2]; water, water, 308.15 K): 12.9 µM (≈ 5.57 µg/mL)
- solubility at 24 h ([2]; water, water, 313.15 K): 16.4 µM (≈ 7.05 µg/mL)
- DXorg/w (Δ lnDX parameter line) ([3]; 1-octanol/n-hexane (n-hexane → 1-octanol), mole fraction scale): 425.33
- TΔStr0 [3, 5]: -4.18 kcal/mol
- ΔGtr0 [3, 5]: -3.59 ± 0.096 kcal/mol
- ΔHtr0 [3, 5]: -7.77 ± 0.382 kcal/mol
- ΔStr0 [3, 5]: −58.7 ± 4.1 J⋅mol^−1⋅K^−1
- TΔStr0 [3, 6]: 1.55 kcal/mol
- ΔGtr0 [3, 6]: -5.14 kcal/mol and -5.14 ± 0.096 kcal/mol
- ΔHtr0 [3, 6]: -3.59 ± 0.048 kcal/mol
- ΔStr0 [3, 6]: 21.8 ± 0.7 J⋅mol^−1⋅K^−1
- TΔStr0 [3, 7]: 5.76 kcal/mol
- ΔGtr0 [3, 7]: -1.55 kcal/mol and -1.55 ± 0.048 kcal/mol
- ΔHtr0 [3, 7]: 4.21 ± 0.43 kcal/mol
- ΔStr0 [3, 7]: 80.8 ± 9.9 J⋅mol^−1⋅K^−1
- ΔGtr [4]: −4.8 kJ⋅mol^−1
